Here are results for one molecule from patent publication US20190209581A1, “DOSAGE REGIMEN FOR TREATMENT OF SOLID TUMORS” (Eli Lilly and Company, priority 2016, published 2019).

Structures are written as SMILES.

In the data set the test system is Sprague Dawley rats. As to the kind of experiment: Toxicity study in rats, oral gavage, daily or 3 times/week for 2 weeks. In kind it is in vivo. The procedure: A study is carried out to assess the toxicity and toxicokinetics of 4,4,4-Trifluoro-N-[(1S)-2-[[(7S)-5-(2-hydroxyethyl)-6-oxo-7H-pyrido[2,3-d][3]benzazepin-7-yl]amino]-1-methyl-2-oxo-ethyl]butanamide in rats given oral gavage doses of 0, 1.3, or 4.3 mg/kg once daily for 2 weeks or 1, 3, 10, or 30 mg/kg 3 times/week for 2 weeks.
4,4,4-Trifluoro-N-[(1S)-2-[[(7S)-5-(2-hydroxyethyl)-6-oxo-7H-pyrido[2,3-d][3]benzazepin-7-yl]amino]-1-methyl-2-oxo-ethyl]butanamide is combined with a vehicle comprising 1% carboxymethylcellulose sodium, 0.25% polysorbate 80 and 0.05% Dow Corning® Antifoam 1510-US in purified water. Sprague Dawley CD®/IGS rats (crl:CD(SD)), International Genetic Standardization (IGS) 7-9 week old rats, 3/sex/group, Charles River Laboratories, Inc, are used for the study. Animals are fed ad libitum with 12 hours light, 12 hours dark cycle maintained in ventilated stainless-steel racks at an ambient temperature of 22.2+/[…] and relative humidity of 30% to 70%. The test compound is dosed according to Table 1. The test compound is administered by oral gavage in a volume of 10 mL/kg body weight. The duration of the study for all groups is 14 days.
Observations, at a minimum, for Groups 01, 06 and 07 are recorded daily before dosing, approximately one (1) hour postdose, and in the afternoon except afternoon observations are not recorded on weekends. Observations for Groups 02, 03, 04, and 05 are recorded beginning on Day 3. At a minimum, observations are recorded as described on dosing days. On non-dosing days, observations are recorded at approximately the same time as for groups receiving daily doses. Animals are weighed on Days 1, 3, 6, 10, and 14. Terminal body weights are collected at scheduled necropsy. Food consumption weights are recorded on Days 1, 3, 6, 10, and 14.

As for `C[C@H](NC(=O)CCC(F)(F)F)C(=O)N[C@@H]1C(=O)N(CCO)c2ncccc2-c2ccccc21` [Compound 1, 4,4,4-trifluoro-N-[(1S)-2-[[(7S)-5-(2-hydroxyethyl)-6-oxo-7H-pyrido[2,3-d][3]benzazepin-7-yl]amino]-1-methyl-2-oxo-ethyl]butanamide], the “Tolerability of once daily administration at same total weekly dose” value (rat, in vivo) was “once daily administration is not tolerated”. Also, under “rat, in vivo, 10 mg/kg”, the “Compound related toxicities, kidney” value is recorded as “minimal to slight renal tubular degeneration”. Besides, under “rats, 1.3 mg/kg daily or 3 mg/kg three times/week, 4.3 mg/kg daily or 10 mg/kg three times/week”, the “Gastrointestinal toxicity, daily versus three times/week at same total weekly dose” value is reported as “more severe gastrointestinal toxicity with daily dosing compared to three times/week dosing”. Also, the Survival result (rats, 2 of 3 female TK animals, daily doses of 1.3 mg/kg) is “euthanized on Day 10 due to poor condition”; the Survival entry (rats, TK animals, daily doses of 4.3 mg/kg) is “found dead on Days 7, 8, or 10”; the Survival result (rats, all non-TK, male TK and 1 of 3 female TK animals, daily doses of 1.3 mg/kg) was “survived until the scheduled study termination”; the Survival entry (rats, all non-toxicokinetic animals, 30 mg/kg 3 times/week) was “euthanized on Day 10 due to poor condition”; the Survival entry (rats, animals given daily doses of 4.3 mg/kg (other than TK)) is “euthanized on Day 10 due to poor condition”; the Survival result (rats, non-TK animals given ≤10 mg/kg and TK animals given ≤3 mg/kg 3 times/week) is given as “survived until the scheduled study termination”. Further, the Survival result (rats, two of three TK animals, 10 mg/kg 3 times/week) is “euthanized on Day 10 due to poor condition and the remaining TK animal was found dead prior to the 48 hr TK time point on Day 16”.
